Test results taken from patent publication US10464930B2, “Compositions and methods for treating estrogen-related medical disorders” (THE BOARD OF TRUSTEES OF THE UNIVERSITY OF ILLINOIS, priority 2012, dated 2019).
Like-named read-outs stand apart in the source and are kept apart here.

Assays:
[1] = tested on: scopolamine- or L-NAME-induced memory deficit; assay: Step through passive avoidance (STPA); type: in vivo, mouse; details: for reversal of scopolamine-induced memory deficit (STPA latency): 2 mg/kg i.p. 20 min prior to training, scopolamine 1 mg/kg, C57Bl/6, 24 h; for reversal of L-NAME-induced cognitive deficit (STPA) / reversal of scopolamine-induced deficit in eNOS KO mice (STPA): 2 mg/kg; for reversal of L-NAME-induced cognitive deficit (STPA): L-NAME 50 mg/kg 30 min prior to training
[2] = tested on: isolated aortic rings; assay: Aortic ring relaxation
[3] = molecular target: T1, ERα (Homo sapiens, UniProt P03372); assay: ER ligand binding by competitive E2 displacement (ERα)
T1 sequence (P03372 1-595): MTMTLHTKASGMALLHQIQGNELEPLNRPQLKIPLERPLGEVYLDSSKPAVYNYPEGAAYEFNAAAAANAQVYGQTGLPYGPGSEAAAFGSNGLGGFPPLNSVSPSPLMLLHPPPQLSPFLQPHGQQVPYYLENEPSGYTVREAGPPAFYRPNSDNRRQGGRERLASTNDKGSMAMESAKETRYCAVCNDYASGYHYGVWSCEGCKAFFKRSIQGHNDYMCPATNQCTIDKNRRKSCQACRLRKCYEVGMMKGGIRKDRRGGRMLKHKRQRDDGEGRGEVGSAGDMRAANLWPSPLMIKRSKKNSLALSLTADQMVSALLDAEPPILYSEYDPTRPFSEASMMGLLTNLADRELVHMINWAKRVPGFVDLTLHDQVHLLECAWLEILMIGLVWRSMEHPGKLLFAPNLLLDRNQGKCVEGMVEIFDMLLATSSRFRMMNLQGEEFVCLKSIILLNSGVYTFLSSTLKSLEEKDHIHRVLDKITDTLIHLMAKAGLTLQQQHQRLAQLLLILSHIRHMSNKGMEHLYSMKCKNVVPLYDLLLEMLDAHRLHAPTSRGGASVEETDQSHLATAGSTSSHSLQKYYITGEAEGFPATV

[4] = tested on: LTP in the CA1 region of hippocampal sections; assay: LTP after theta burst stimulation in hippocampal slices; set-up: species or system mouse; details: for end average potentiation of fEPSP (LTP): 30 min prior to TBS, slices of 16-month male 3×Tg mice
Procedure: LTP was measured after TBS in the CA1 region of hippocampal sections from 16 month male 3×Tg mice or WT controls. Test compounds (SERMs 100 nM; G15 100 nM) were added 30 min prior to TBS. […] (C) Secondary analysis of theta bursts indicate action both during induction and stabilization of LTP, through a GPR30 dependent mechanism.
LTP was measured after TBS in the CA1 region of hippocampal sections from 8 month old male C57Bl/6 mice. G15 (100 nM) was added 30 min prior to TBS and continued throughout. G15 had no effect on LTP, which reached levels equal to WT background in FIG. 2 for both controls and G15.
LTP was measured in the CA1 region of hippocampal sections from 16 month male 3×Tg mice using the method detailed in manuscript, with the exception of a variable interburst interval during TBS. ODQ (10 nM) was added 30 min prior to TBS and continued throughout.
Electrophysiology. All experiments used 16-month old male 3×Tg transgenic or age-matched WT background controls. For electrophysiology, mice were rapidly decapitated, and brains were removed into an ice-cold aCSF solution (in mM: NaCl 124, KCl 3.0, KH2PO4 1.25, NaHCO3 25.7, D-glucose 10, L-ascorbate 2.0, MgSO4 2.5, and CaCl2 3.3) and sectioned on a tissue chopper into 400 um sections. Slices were transported to a 37° C. solution of aCSF, continuously bubbled with 95% O2/5% CO2, and allowed to recover at least 60 min before experimentation. After placement of a stimulation electrode in the Schaffer commissural fibers and recording electrodes with 2 M NaCl solution into the stratum radiatum of the CA1 area, stimulus intensity was set to evoke submaximal fEPSP and continuously monitored at 20 s intervals for at least 15 min to establish a stable baseline. SERMs (100 nM) and G15 (100 nM) were prepared fresh in perfusate and started at least 30 min before LTP induction to reach a new baseline after enhancement of basal synaptic transmission was observed(97). LTP was induced using a theta burst induction protocol by applying 10 bursts of four pulses at 100 Hz with an interburst interval of 200 msec. Resulting fEPSP was monitored at 20 s intervals for […] post TBS.
Long-term potentiation (LTP) in the CA1 field of the hippocampus is a well-studied cellular model for learning and memory. […] At 16 months, an advanced age at which Alzheimer's-like neuropathology is well developed in these animals, studies on LTP have not previously been reported. We observed a robust, reproducible deficit in LTP in these aged transgenic mice, with field excitatory post-synaptic potentials (fEPSP) showing an end average potentiation of 97.0±6.4% of baseline at 45 min post-TBS, compared to 134.7±10.3% observed in the wild type (WT) controls (FIG. 2A,B).
To determine if drugs enhanced LTP by altering physiological responses during LTP induction, such as NMDA receptor-mediated currents or downstream events involved in expression or stabilization, the postsynaptic responses to theta bursts were quantified as previously described (56, 57).

[5] = tested on: NO levels (NOx) in plasma and hippocampus; assay: NOx measurement in plasma and CNS by chemiluminescence; type: in vivo, mouse; details: 2 mg/kg; for NOx in plasma or hippocampus, eNOS(−/−): eNOS(−/−) animals; for NOx in hippocampus and plasma, WT: one hour after injection, WT mice
Procedure: Levels of NO were assessed by measuring breakdown products 1 h after i.p. injection of SERMs (2 mg/kg) using chemiluminescence detection.
(§1) CNS Bioavailability & NOX Measurement. All experiments were performed on either male C57B1/6 mice (Charles River Laboratory) or eNOS(−/−) animals. Animals were injected (i.p.) at various time points before sacrifice at the doses specified. After euthanasia via CO2, plasma was collected, and cortices and hippocampi were collected after PBS perfusion and stored at −80° C. Tissue samples were weighed and extracted with methanol. Plasma samples were extracted with cold acetonitrile. Quantitative analysis of drug concentrations in plasma and brain used internal standards spiked into plasma and brain homogenates before liquid extraction with acetonitrile or methanol, and separation and measurement was performed with LC-MS/MS tandem mass spectrometry. The supernatant (deproteinized) was analyzed by chemiluminescence with SIEVERS 280i nitric oxide analyzer.
(§2) Brain and plasma NO levels were assessed by measuring metabolic oxidation products, NO2^− and NO3^− (NOx), using chemiluminescence detection. […] To assess the relative contribution of eNOS, DMA and NO-DMA were administered to eNOS(−/−) animals.

[6] = molecular target: ERβ (Homo sapiens, UniProt Q92731); assay: ER ligand binding by competitive E2 displacement (ERβ)
[7] = tested on: clotting cascades (PT, aPTT); assay: Anticoagulation: PT and aPTT after i.p. dosing; type: in vivo, mouse; details: for anticoagulation with impaired NOS function: 2 mg/kg 1 h prior, L-NAME 50 mg/kg 30 m prior to collection; for PT / aPTT / anticoagulant effect at 3 h: 2 mg/kg i.p.; for PT / aPTT: 1 h
Procedure: Blood was collected by cardiac puncture and PTT and aPTT were determined 1 or 3 h after i.p. drug administration (2 mg/kg).
Anticoagulation. SERMs were injected (i.p.) 1 h before blood collection, and L-NAME was injected (i.p.) 30 min before blood collection. The mouse was sedated by exposing it to CO2 until unconscious and blood was collected in 4.5 mL BD Vacutainer Glass Evacuated Blood Collection Tubes (with 0.105 M buffered sodium citrate) by cardiac puncture. The blood samples were centrifuged at 300 g for 30 min to separate the plasma from the blood, and then 200 uL of plasma was taken from each sample and the PT and aPTT were measured using an ACL 7000 Coagulation Analyzer. The analyzer injects […] of PT-fibrinogen (lyophilized rabbit brain calcium thromboplastin with stabilizers, polybrene, buffer and preservatives) to 75 μL of plasma sample to measure the PT, and 75 μL of synthAFAX (0.025 M)+100 μL of CaCl2 (0.02 M) were added to 75 μL of plasma to measure aPTT. The analysis was at 37° C. using a photo sensor at λ=671 nm.

[8] = tested on: primary cortical neurons exposed to OGD; assay: Oxygen glucose deprivation (OGD) neuroprotection, MTT; type: cell-based, rat; details: for neuroprotection (cell survival by MTT): 2 h OGD, survival at 24 h, SERMs 100 nM, normalized to E2 10 nM; for neuroprotective activity with GPR30 antagonist: plus G15 (100 nM); for neuroprotective activity with GPR blocker: plus pertussis toxin (100 ng/mL)
[9] = CNS bioavailability by LC-MS/MS; type: in vivo, mouse; details: 5 mg/kg i.p., up to 2 h after administration
Procedure: as §1, §2

[10] = Rattus norvegicus, read-out: EC50 for relaxation

Sequence of ERβ (Q92731 whole entry, species assumed): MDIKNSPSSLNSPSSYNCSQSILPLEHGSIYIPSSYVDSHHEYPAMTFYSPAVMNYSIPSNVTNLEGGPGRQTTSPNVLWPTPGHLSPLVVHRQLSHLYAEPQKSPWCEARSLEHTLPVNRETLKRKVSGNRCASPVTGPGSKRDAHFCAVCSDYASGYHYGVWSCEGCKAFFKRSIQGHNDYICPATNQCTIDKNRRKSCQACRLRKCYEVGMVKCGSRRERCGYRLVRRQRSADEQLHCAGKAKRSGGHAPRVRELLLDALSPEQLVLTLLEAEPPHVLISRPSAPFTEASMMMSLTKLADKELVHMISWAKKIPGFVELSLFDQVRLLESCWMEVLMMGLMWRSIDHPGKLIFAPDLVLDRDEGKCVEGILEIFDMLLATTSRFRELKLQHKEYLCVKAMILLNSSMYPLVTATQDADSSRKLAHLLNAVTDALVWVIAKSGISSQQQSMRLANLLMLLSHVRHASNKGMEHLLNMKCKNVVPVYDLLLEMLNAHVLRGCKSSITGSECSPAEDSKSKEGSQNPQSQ

Compound | reversal of scopolamine-induced memory deficit (STPA latency) [1] | EC50 [2, 10] [µM] | efficacy (relaxation) ([2]; intact aortic rings) [%] | enhancement of subsequent theta bursts during LTP induction ([4]; 100 nM, 3×Tg slices) | end average potentiation of fEPSP (LTP) ([4]; 100 nM) | reversal of L-NAME-induced cognitive deficit (STPA) [1] | reversal of scopolamine-induced deficit in eNOS KO mice (STPA) [1] | NOx in plasma or hippocampus, eNOS(−/−) [5] | NOx in hippocampus and plasma, WT [5] | anticoagulation with impaired NOS function [7] | PT [7] | aPTT [7] | anticoagulant effect at 3 h [7] | neuroprotection (cell survival by MTT) [8] | neuroprotective activity with GPR30 antagonist [8] | neuroprotective activity with GPR blocker [8] | also measured
O=C(c1ccc(OCCN2CCCCC2)cc1)c1c(-c2ccc(O)cc2)sc2cc(O)ccc12 [raloxifene, Raloxifene] | restored the cognitive deficit | 4 ± 2.9 | ~100 |  |  |  |  |  |  |  |  |  |  |  |  |  | 
Oc1ccc2c(Oc3ccc(OCCN4CCCCC4)cc3)c(-c3ccc(F)cc3)sc2c1 [F-DMA] |  |  |  |  |  |  |  |  |  |  |  |  |  |  |  |  | IC50 ([3]; competitive E2 displacement): 0.017 ± 0.0006 µM; EC50 ([2]; read-out: EC50 for relaxation, intact aortic rings, mean, S.D.): 2.4 ± 1.2 µM
O=[N+]([O-])OCCCC1CCN(CCOc2ccc(Oc3c(-c4ccc(O)cc4)sc4cc(O)ccc34)cc2)CC1 [NO-DMA, 3-(1-(2-(4-(6-hydroxy-2-(4-hydroxyphenyl)benzo[b]thiophen-3-yloxy)phenoxy)ethyl)piperidin-4-yl)propyl nitrate] | equivalent restoration of protection to DMA | 0.13 ± 0.09 |  | augmented | 144.2±5.2 % of baseline | reversed only by NO-DMA | only NO-DMA showed efficacy | increase NOx significantly | greater than twofold elevation | significant anticoagulation compared to control | increased PT, but only NO-DMA reached significance | significantly increased | remained significantly higher than control | robust neuroprotection identical to DMA | blocked | blocked | IC50 [3]: 0.0214 ± 0.0067 µM; EC50 ([2]; Rattus norvegicus, read-out: EC50 for relaxation, L-NAME): 1 ± 0.54 µM; EC50 ([2]; Rattus norvegicus, read-out: EC50 for relaxation, endothelium-denuded): 0.9 ± 0.69 µM; maximal relaxation response ([2]; intact aortic rings): induced maximal relaxation; potency relative to DMA ([2]; intact aortic rings): at least ten-fold increased potency; IC50 [6]: 0.0244 ± 0.0096 µM; neuroprotection with ERα blockade ([8]; plus ICI 182780 (100 nM), added 45 min prior to OGD): did not block this effect; attenuation of neuroprotective activity by NOS antagonist ([8]; plus L-NAME (100 μM)): ineffective; attenuation of neuroprotective activity by PI3K inhibitor ([8]; plus LY294002 (10 μM)): effective
COc1ccc(-c2sc3cc(O)ccc3c2Oc2ccc(OCCN3CCCCC3)cc2)cc1 [arzoxifene] | restored the cognitive deficit | 3.3 ± 2.5 |  |  |  |  |  |  |  |  |  |  |  |  |  |  | 
Oc1ccc(-c2sc3cc(O)ccc3c2Oc2ccc(OCCN3CCCCC3)cc2)cc1 [DMA, desmethylarzoxifene] | restored the cognitive deficit | 3.5 ± 2.5 | ~100 | augmented | 144.9±8.7 % of baseline | not able to restore cognition | not able to restore cognition | no effect | greater than twofold elevation | did not persist in the presence of NOS blockade | increased PT | significantly increased | decreased to that of control samples | robust neuroprotection | blocked | blocked | end fEPSP (LTP) with GPR30 blocker ([4]; DMA 100 nM plus G15 (100 nM), 3×Tg slices): 96.8±7.10%; effect on LTP with ODQ ([4]; plus ODQ (10 nM), 3×Tg slices, preliminary): ODQ blocks effect of DMA; brain regional retention [9]: preferential retention in the hippocampus over the cortex; efficacy after endothelium removal or NOS inhibition ([2]; removal of the endothelium or L-NAME): significant decrease in the efficacy
Brc1cc2c(cc1[C@@H]1Nc3ccccc3[C@@H]3C=CC[C@@H]31)OCO2 [Compound G15] |  |  |  |  |  |  |  |  |  |  |  |  |  |  |  |  | effect on LTP in WT slices ([4]; 100 nM, WT C57Bl/6 slices, absence of DMA): no effect
